{"source": "patent US20140314857A1", "about": "“FORMULATIONS FOR ENHANCED BIOAVAILABILITY OF ZANAMIVIR” (priority 2012, published 2014)", "key": {"Caco-2 cell monolayers": {"system": "Caco-2 cell monolayers", "assay": "Unidirectional (A-to-B) permeability of zanamivir across Caco-2 cell monolayers with and without excipients", "type": "in vitro ADME", "details": "vs no enhancer", "procedure": "Caco-2 cells were obtained from American Type Culture Collection (Rockville, Md.). Stock cultures were maintained in flasks with DMEM medium supplemented with 10% FBS, 1% non-essential amino acids, 1 mmol/L sodium pyruvate, 100 IU/mL penicillin, and 100 μg/mL streptomycin in a humidified incubator (37° C., 5% CO2). Cells were harvested by trypsinization and seeded at 60,000 cells/cm^2 onto Costar Transwell® 12-well dual-chamber plates with collagen-coated, microporous polycarbonate membranes (1.13 cm^2 insert area, 0.4 μm pore size; Corning Life Sciences, Acton, Mass.) for permeability studies. The culture medium was changed three times per week. […]\nUnidirectional (A-to-B) permeability of zanamivir was determined at 15 μg/mL in the absence and presence of varying concentrations of excipients in Caco-2 cell monolayers. […]\nAssays were conducted by seeding approximately 68,000 viable Caco-2 cells in 1.12 cm^2 Costar Transwell inserts (12-well format, 0.4 micron pore size PET membranes) in Dulbecco's Modified Eagles Medium (high glucose) supplemented with 20% fetal bovine serum, glutamine, pyruvate, non-essential amino acids, epidermal growth factor, ITS (insulin, transferrin, selenium), and penicillin/streptomycin. […] Transepithelial electrical resistance (TEER) readings were conducted to test the quality of the cell monolayer on the Transwell membrane. […]"}, "[1]": {"assay": "Varying zanamivir levels at fixed 50 µL Capmul MCM L8, intraduodenal administration", "type": "in vivo, male Sprague-Dawley rats", "details": "male, Sprague-Dawley, rat, plasma, ID", "description": "Male Sprague-Dawley rats (Hilltop Labs), 3 animals per treatment group, 250-350 grams in weight, were fitted with a jugular vein cannula (JVC). Animals intended for intraduodenal dosing were also fitted with one or more intraduodenal cannula (IDC) and those intended for intravenous dosing were fitted with a second JVC. Food was withheld from the animals for a minimum of twelve hours prior to test article administration and was returned approximately four hours post-dose. Water was supplied ad libitum.\nIntravenous dosing was conducted by the injection of 1.5 mg of zanamivir in 200 μL of PBS through a JVC. For some experiments, the absorption enhancer was administered intraduodenally 2 hr prior to administering 1.5 mg of zanamivir in PBS through a second IDC. Each intraduodenal dose was followed with the introduction of a small air bubble (˜10 μL) in the cannula followed by a flush of 125 μL of PBS to ensure the dose was given in full. The volume of PBS used for cannula flush was consistent across the treatment groups. The cannula was tied to prevent the PBS remaining in the cannula from entering the duodenum.\nBlood samples collected via the JVC, approximately 400 μL each, were obtained at 2 min, 5 min, 15 min, 30 min, 60 min, 90 min, and 120 min, with sodium heparin used as an anti-coagulant. Each sample was placed into a chilled tube containing the anticoagulant and kept on ice until centrifugation at 4° C., 3,000×g, for 5 min. The plasma supernatants were stored at −70° C. until LC-MS analysis."}}}
{"molecule": "CC(=O)NC1C(NC(=N)N)C=C(C(=O)O)OC1C(O)C(O)CO", "note": "(centres unmarked) [Zanamivir, 5-acetamido-4-guanidino-6-(1,2,3-trihydroxypropyl)-5,6-dihydro-4H-pyran-2-carboxylic acid]", "values": [{"measurement": "increase in apparent permeability coefficient (Papp)", "setting": "Caco-2 cell monolayers; optimized concentration of Capmul MCM L8 (0.25%)", "result": "> 5", "unit": "fold"}, {"measurement": "increase in apparent permeability coefficient (Papp)", "setting": "Caco-2 cell monolayers; optimized concentration of glycerol (5%)", "result": "> 5", "unit": "fold"}, {"measurement": "Tmax", "setting": "[1]; 0.75 mg zanamivir in 50 µL Capmul MCM L8", "result": 4.8, "unit": "min"}, {"measurement": "Tmax", "setting": "[1]; 1.5 mg zanamivir in 50 µL Capmul MCM L8", "result": 4.8, "unit": "min"}, {"measurement": "Tmax", "setting": "[1]; 3.0 mg zanamivir in 50 µL Capmul MCM L8", "result": 8.4, "unit": "min"}]}
